Here are results for four compounds from patent publication US20220387608A1, “ADRENOMEDULLIN-ANALOGUES FOR LONG-TERM STABILIZATION AND THEIR USE” (Bayer Aktiengesellschaft, priority 2019, published 2022).

The target of the test is T1, AM1R (Homo sapiens, UniProt O60895+Q16602).
T1 construct: EYFP; ECFP; expressed in transfected cells; host or cells: HEK-293 (transient co-transfection)
In words: Activity determination in vitro: cAMP/CRE-luciferase reporter assay in HEK293 cells transiently co-transfected with CLR and RAMP2. Type of test: cell-based. The note with it: for Emax: HEK293, normalized to [G14]ADM(14-52); for EC50: HEK293 with CLR/RAMP2, CRE-luciferase, 3 h stimulation. How it is done: (1a) Activity Determination of Adrenomedullin Analogues in vitro
Cell Culture HEK-293 cells (human embryonic kidney cells) were cultured in Ham's F-12/DMEM (1/1; v/v) containing 15% FCS under humidified atmosphere at 37° C. and 5% CO2 in 75 cm^2 cell culture flasks.
Cells were cultured in 75 cm^2 flasks to 70-80% confluency. 45 μl Metafectene® Pro was diluted in 900 ρl Ham's F-12/DMEM (1/1; v/v) and incubated for 20 min at room temperature. 9 μg plasmid containing DNA of CLR fused to EYFP and 3 μg plasmid containing DNA of RAMP2 fused to ECFP were dissolved in 900 μl Ham's F-12/DMEM (1/1; v/v). The plasmid solution was mixed with the Metafectene® Pro solution and incubated for 25 min at room temperature. Medium was removed from the cells and replaced by 6 m1 Ham's F-12/DMEM (1/1; v/v) containing 15% FCS. After addition of transfection solution the cells were incubated for 3 h under humidified atmosphere at 37° C. and 5% CO2. For the second transfection 45 μl Metafectene® Pro was diluted in 900 μl Ham's F-12/DMEM (1/1; v/v) and incubated for 20 min at room temperature. 12 μg of pGL4.29[Luc2P/CRE/Hygro] plasmid containing DNA for the luciferase reporter gene luc2P (with CRE promotor region) were dissolved in 900 μl Ham's F-12/DMEM (1/1; v/v). The plasmid solution was mixed with the Metafectene® Pro solution and incubated for 25 min at room temperature. Medium was removed from the cells and replaced by 6 m1 Ham's F-12/DMEM (1/1; v/v) containing 15% FCS. After addition of transfection solution, the cells were incubated under humidified atmosphere at 37° C. and 5% CO2 over night.
For coating of 96-well-plates, 50 μl of a poly-D-lysine solution in DPBS (0.1 mg/ml) were pipetted in each well and incubated for 40 min. After removal of poly-D-lysine, each well was washed with 50 μl DPBS. Transiently transfected cells were detached from the cell culture flask by removal of the medium, 2-fold washing with 5 m1 DPBS and resuspending in 40 m1 Ham's F-12/DMEM (1/1; v/v) containing 15% FCS. 90,000 to 120,000 cells in 150 μl Ham's F-12/DMEM (1/1; v/v) containing 15% FCS were seeded per well and the plates were incubated under humidified atmosphere at 37° C. and 5% CO2 over night.
For each ligand, a serial dilution with eight different concentrations was prepared using Ham's F^12/DMEM (1/1; v/v). Before stimulation, the medium on the cells was replaced by 100 μl Ham's F^12/DMEM (1/1; v/v) and the plates were incubated for 1 h under humidified atmosphere at 37° C. and 5% CO2. For stimulation, the medium was removed and the cells were incubated for 3 h in 80 μl of ligand-solution under humidified atmosphere at 37° C. and 5% CO2. In addition 80 μl of a 5 μM forskolin solution in Ham's F-12/DMEM (1/1; v/v) was used as a positive control and 80 μl of Ham's F-12/DMEM (1/1; v/v) as a negative control. Each concentration and the controls were tested as triplicates.
After 3 h of stimulation, the solutions were removed and the cells were washed with 50 μl of Ham's F-12/DMEM (1/1; v/v) perwell. After 10 m incubation in 30 μl of Ham's F-12/DMEM (1/1; v/v) at room temperature, 30 μl of luciferase-solution (ONE-Glo™ Luciferase Assay System) was added and the luminescence was directly measured using an Infinite M200 (Tecan).
Data analysis of the luminescence measurement was carried out with GraphPad Prism 5. Therefore, the measured luminescence values of each plate were first corrected on the base of the respective average of forskolin stimulation. Afterwards they were normalized to [G14]ADM(14-52), which was used as standard peptide in every assay. After correction and normalization, data was analyzed using non-linear regression giving dose-response curves for each tested ligand.

Positions of bridges follow the written chain, without caps; N, C: chain ends. Non-standard residues stand in square brackets, D forms with d. Residues, ends and D or L forms follow the SMILES beside them. *: point of attachment. C18 diacid = O=C(O)CCCCCCCCCCCCCCCCC(=O)*; PEG5 = NCCOCCOCCOCCOCCOCCC(=O)O; PEG4 = NCCOCCOCCOCCOCCC(=O)O

T1 sequence (Q16602 23-461): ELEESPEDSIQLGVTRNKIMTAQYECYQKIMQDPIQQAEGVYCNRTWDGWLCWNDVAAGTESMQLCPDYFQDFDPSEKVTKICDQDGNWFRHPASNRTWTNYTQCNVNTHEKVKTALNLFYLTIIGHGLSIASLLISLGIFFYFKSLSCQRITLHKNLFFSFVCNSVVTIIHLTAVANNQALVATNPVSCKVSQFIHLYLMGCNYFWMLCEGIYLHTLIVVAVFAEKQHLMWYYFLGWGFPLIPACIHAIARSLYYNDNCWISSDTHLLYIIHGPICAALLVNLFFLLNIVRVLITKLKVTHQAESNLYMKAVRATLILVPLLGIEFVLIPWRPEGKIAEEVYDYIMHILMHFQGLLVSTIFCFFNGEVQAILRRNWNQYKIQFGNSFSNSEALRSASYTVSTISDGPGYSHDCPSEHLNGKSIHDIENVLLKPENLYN
T1 sequence (O60895 43-175): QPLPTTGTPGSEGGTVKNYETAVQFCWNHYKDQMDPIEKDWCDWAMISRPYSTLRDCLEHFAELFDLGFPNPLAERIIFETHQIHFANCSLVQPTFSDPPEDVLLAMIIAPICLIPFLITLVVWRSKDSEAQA

Compound `CC[C@H](C)[C@H](NC(=O)[C@H](CCC(N)=O)NC(=O)[C@H](Cc1c[nH]cn1)NC(=O)[C@H](C)NC(=O)[C@H](CC(C)C)NC(=O)[C@H](CCCCN)NC(=O)[C@H](CCC(N)=O)NC(=O)[C@@H](NC(=O)[C@@H](NC(=O)[C@@H]1CSSC[C@H](NC(=O)CNC(=O)CN)C(=O)N[C@@H](CCCNC(=N)N)C(=O)N[C@@H](Cc2ccccc2)C(=O)NCC(=O)N[C@@H]([C@@H](C)O)C(=O)N1)[C@@H](C)O)C(C)C)C(=O)N[C@@H](Cc1ccc(O)cc1)C(=O)N[C@@H](CCC(N)=O)C(=O)N[C@@H](Cc1ccccc1)C(=O)N[C@H](C(=O)N[C@@H](CC(=O)O)C(=O)NCCOCCOCCOCCOCCC(=O)N[C@H](C(=O)N[C@@H](C)C(=O)N1CCC[C@H]1C(=O)N[C@@H](CCCNC(=N)N)C(=O)N[C@@H](CO)C(=O)N[C@@H](CCCCN)C(=O)N[C@H](C(=O)N[C@@H](CO)C(=O)N1CCC[C@H]1C(=O)N[C@@H](CCC(N)=O)C(=O)NCC(=O)N[C@@H](Cc1ccc(O)cc1)C(N)=O)[C@@H](C)CC)C(C)C)[C@@H](C)O` [Example 10, ((4R,7S,13S,16S,19R)-19-(2-(2-aminoacetamido)acetamido)-13-benzyl-16-(3-guanidinopropyl)-7-((R)-1-hydroxyethyl)-6,9,12,15,18-pentaoxo-1,2-dithia-5,8,11,14,17-pentaazacycloicosane-4-carbonyl)-L-threonyl-ADM(23-35)-(1-(λ^2-azaneyl)-3,6,9,12-tetraoxapentadecan-15-oyl)-L-valyl-ADM(42-52)] (H-GGCRFGTCTVQKLAHQIYQFTD[PEG4]VAPRSKISPQGY-NH2; disulfide 3-8) showed an Emax of 77 ± 3% and an EC50 of 81 nM.
In the same order, the values of `CC[C@H](C)[C@H](NC(=O)[C@H](CCC(N)=O)NC(=O)[C@H](Cc1c[nH]cn1)NC(=O)[C@H](C)NC(=O)[C@H](CC(C)C)NC(=O)[C@H](CCCCN)NC(=O)[C@H](CCC(N)=O)NC(=O)[C@@H](NC(=O)[C@@H](NC(=O)[C@@H]1CSSC[C@H](NC(=O)CNC(=O)CN)C(=O)N[C@@H](CCCNC(=N)N)C(=O)N[C@@H](Cc2ccccc2)C(=O)NCC(=O)N[C@@H]([C@@H](C)O)C(=O)N1)[C@@H](C)O)C(C)C)C(=O)N[C@@H](Cc1ccc(O)cc1)C(=O)N[C@@H](CCC(N)=O)C(=O)N[C@@H](Cc1ccccc1)C(=O)N[C@H](C(=O)NCCOCCOCCOCCOCCOCCC(=O)N[C@H](C(=O)N[C@@H](C)C(=O)N1CCC[C@H]1C(=O)N[C@@H](CCCNC(=N)N)C(=O)N[C@@H](CO)C(=O)N[C@@H](CCCCN)C(=O)N[C@H](C(=O)N[C@@H](CO)C(=O)N1CCC[C@H]1C(=O)N[C@@H](CCC(N)=O)C(=O)NCC(=O)N[C@@H](Cc1ccc(O)cc1)C(N)=O)[C@@H](C)CC)C(C)C)[C@@H](C)O` [Example 11, ((4R,7S,13S,16S,19R)-19-(2-(2-aminoacetamido)acetamido)-13-benzyl-16-(3-guanidinopropyl)-7-((R)-1-hydroxyethyl)-6,9,12,15,18-pentaoxo-1,2-dithia-5,8,11,14,17-pentaazacycloicosane-4-carbonyl)-L-threonyl-ADM(23-34)-(1-(λ^2-azaneyl)-3,6,9,12,15-pentaoxaoctadecan-18-oyl)-L-valyl-ADM(42-52)] (H-GGCRFGTCTVQKLAHQIYQFT[PEG5]VAPRSKISPQGY-NH2; disulfide 3-8) are 94 ± 2% and 39 nM.
`CC[C@H](C)[C@H](NC(=O)[C@H](CCC(N)=O)NC(=O)[C@H](Cc1c[nH]cn1)NC(=O)[C@H](C)NC(=O)[C@H](CC(C)C)NC(=O)[C@H](CCCCN)NC(=O)[C@H](CCC(N)=O)NC(=O)[C@@H](NC(=O)[C@@H](NC(=O)[C@@H]1CSSC[C@H](NC(=O)CNC(=O)CN)C(=O)N[C@@H](CCCNC(=N)N)C(=O)N[C@@H](Cc2ccccc2)C(=O)NCC(=O)N[C@@H]([C@@H](C)O)C(=O)N1)[C@@H](C)O)C(C)C)C(=O)N[C@@H](Cc1ccc(O)cc1)C(=O)N[C@@H](CCC(N)=O)C(=O)N[C@@H](Cc1ccccc1)C(=O)N[C@H](C(=O)N[C@@H](CC(=O)O)C(=O)NCCOCCOCCOCCOCCOCCC(=O)N[C@@H](C)C(=O)N1CCC[C@H]1C(=O)N[C@@H](CCCNC(=N)N)C(=O)N[C@@H](CO)C(=O)N[C@@H](CCCCN)C(=O)N[C@H](C(=O)N[C@@H](CO)C(=O)N1CCC[C@H]1C(=O)N[C@@H](CCC(N)=O)C(=O)NCC(=O)N[C@@H](Cc1ccc(O)cc1)C(N)=O)[C@@H](C)CC)[C@@H](C)O` [Example 12, ((4R,7S,13S,16S,19R)-19-(2-(2-aminoacetamido)acetamido)-13-benzyl-16-(3-guanidinopropyl)-7-((R)-1-hydroxyethyl)-6,9,12,15,18-pentaoxo-1,2-dithia-5,8,11,14,17-pentaazacycloicosane-4-carbonyl)-L-threonyl-ADM(23-35)-(1-(λ^2-azaneyl)-3,6,9,12,15-pentaoxaoctadecan-18-oyl)-L-alanyl-ADM(43-52)] (H-GGCRFGTCTVQKLAHQIYQFTD[PEG5]APRSKISPQGY-NH2; disulfide 3-8) gave an Emax of 79 ± 5% and an EC50 of 431 nM.
The compound `CC[C@H](C)[C@H](NC(=O)[C@H](CCC(N)=O)NC(=O)[C@H](Cc1c[nH]cn1)NC(=O)[C@H](C)NC(=O)[C@H](CC(C)C)NC(=O)[C@H](CCCCN)NC(=O)[C@H](CCC(N)=O)NC(=O)[C@@H](NC(=O)[C@@H](NC(=O)[C@@H]1CSSC[C@H](NC(=O)CNC(=O)[C@@H](N)CCCCNC(=O)CCCCCCCCCCCCCCCCC(=O)O)C(=O)N[C@@H](CCCNC(=N)N)C(=O)N[C@@H](Cc2ccccc2)C(=O)NCC(=O)N[C@@H]([C@@H](C)O)C(=O)N1)[C@@H](C)O)C(C)C)C(=O)N[C@@H](Cc1ccc(O)cc1)C(=O)N[C@@H](CCC(N)=O)C(=O)N[C@@H](Cc1ccccc1)C(=O)N[C@H](C(=O)N[C@@H](CC(=O)O)C(=O)N[C@@H](CCCCN)C(=O)N[C@@H](CC(=O)O)C(=O)N[C@@H](CCCCN)C(=O)N[C@@H](CC(=O)O)C(=O)N[C@@H](CC(N)=O)C(=O)N[C@H](C(=O)N[C@@H](C)C(=O)N1CCC[C@H]1C(=O)N[C@H]1CCCCNC(=O)C[C@@H](C(=O)N2CCC[C@H]2C(=O)N[C@@H](CCC(N)=O)C(=O)NCC(=O)N[C@@H](Cc2ccc(O)cc2)C(N)=O)NC(=O)[C@H]([C@@H](C)CC)NC(=O)[C@H](CCCCN)NC(=O)[C@H](CO)NC1=O)C(C)C)[C@@H](C)O` [Example 13] (H-K(C18 diacid)GCRFGTCTVQKLAHQIYQFTDKDKDNVAPKSKIDPQGY-NH2; disulfide 3-8; lactam 31-35) returned an Emax of 94 ± 7% and an EC50 of 2.6 nM.
